Source: US20250154144A1 (CHILDREN'S HOSPITAL MEDICAL CENTER, priority 2021, published 2025)
Where two headings read alike, the source gives them in different places.

How the values were obtained:
MOLM14 D835Y cells = experiment: cells; assay type: cell-based; conditions: 48 hours, Cell Titer Glo, read-out: MOLM14 D835Y IC50
MOLM14 F691L cells = experiment: cells; assay type: cell-based; conditions: 48 hours, Cell Titer Glo, read-out: MOLM14 F691L IC50
FLT3 = target: T1, FLT3 (Homo sapiens, UniProt P36888); experiment: RBC HotSpot Kinase Assay, FLT3; conditions: FLT3 IC50
T1 sequence (P36888 610-943 limits assumed): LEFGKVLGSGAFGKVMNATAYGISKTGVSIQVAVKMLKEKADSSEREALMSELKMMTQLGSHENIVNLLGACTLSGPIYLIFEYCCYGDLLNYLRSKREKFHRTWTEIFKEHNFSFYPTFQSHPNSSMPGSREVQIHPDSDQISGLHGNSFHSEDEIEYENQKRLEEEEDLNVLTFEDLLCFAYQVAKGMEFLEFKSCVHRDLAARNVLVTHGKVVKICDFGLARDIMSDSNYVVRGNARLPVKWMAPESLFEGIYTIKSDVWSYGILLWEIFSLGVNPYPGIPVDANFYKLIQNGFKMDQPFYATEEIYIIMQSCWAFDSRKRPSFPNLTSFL

IRAK1 = IRAK1 (Homo sapiens, UniProt P51617); experiment: RBC HotSpot Kinase Assay, IRAK1; conditions: IRAK1 IC50
IRAK4 = target: T2, IRAK4 (Homo sapiens, UniProt Q9NWZ3); experiment: RBC HotSpot Kinase Assay, IRAK4; conditions: IRAK4 IC50
T2 sequence (Q9NWZ3 1-460): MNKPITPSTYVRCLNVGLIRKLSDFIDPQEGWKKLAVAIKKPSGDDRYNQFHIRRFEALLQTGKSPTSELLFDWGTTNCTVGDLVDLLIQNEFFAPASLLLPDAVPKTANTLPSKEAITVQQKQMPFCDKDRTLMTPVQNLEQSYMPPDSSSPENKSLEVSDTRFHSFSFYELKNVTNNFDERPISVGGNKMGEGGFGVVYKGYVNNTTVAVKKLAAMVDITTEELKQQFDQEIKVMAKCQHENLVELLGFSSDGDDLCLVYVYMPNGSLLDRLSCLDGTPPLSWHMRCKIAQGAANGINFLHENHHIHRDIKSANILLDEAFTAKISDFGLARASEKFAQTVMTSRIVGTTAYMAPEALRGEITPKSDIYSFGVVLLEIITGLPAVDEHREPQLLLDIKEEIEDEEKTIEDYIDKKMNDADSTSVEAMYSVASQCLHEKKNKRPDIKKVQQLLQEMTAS

Sequence of IRAK1 (P51617 whole entry): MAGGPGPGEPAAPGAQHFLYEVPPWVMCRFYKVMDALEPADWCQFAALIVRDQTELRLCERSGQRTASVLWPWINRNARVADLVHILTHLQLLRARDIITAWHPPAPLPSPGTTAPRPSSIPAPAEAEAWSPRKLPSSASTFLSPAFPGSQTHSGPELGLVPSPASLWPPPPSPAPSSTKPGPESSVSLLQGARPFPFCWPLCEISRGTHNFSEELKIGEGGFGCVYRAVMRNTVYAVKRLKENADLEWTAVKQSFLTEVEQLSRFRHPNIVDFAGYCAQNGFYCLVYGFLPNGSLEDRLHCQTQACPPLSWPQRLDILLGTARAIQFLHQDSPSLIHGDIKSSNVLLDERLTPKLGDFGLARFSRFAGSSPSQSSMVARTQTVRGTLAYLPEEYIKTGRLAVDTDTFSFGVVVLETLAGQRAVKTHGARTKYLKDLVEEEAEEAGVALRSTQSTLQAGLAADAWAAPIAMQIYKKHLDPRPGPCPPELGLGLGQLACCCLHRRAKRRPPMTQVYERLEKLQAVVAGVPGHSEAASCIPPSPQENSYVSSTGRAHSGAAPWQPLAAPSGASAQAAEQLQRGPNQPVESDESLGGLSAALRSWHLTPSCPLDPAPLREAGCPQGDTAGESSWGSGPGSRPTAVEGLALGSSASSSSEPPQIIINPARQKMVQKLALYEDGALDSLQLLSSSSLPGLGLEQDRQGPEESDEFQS

Compound	IC50 (MOLM14 D835Y cells; Homo sapiens, MOLM-14, 48 h) [nM]	IC50 (MOLM14 F691L cells; Homo sapiens, MOLM-14, 48 h) [nM]	IC50 (FLT3) [nM]	IC50 (IRAK1) [nM]	IC50 (IRAK4) [nM]	IC50 (MOLM14 D835Y cells) [nM]	IC50 (MOLM14 F691L cells) [nM]
COc1cc2ncc(-c3cncc(N[C@H]4CNC[C@@H]4F)n3)n2cc1C(C)(C)O [Compound 19, 2-(3-(6-(((3S,4S)-4-fluoropyrrolidin-3-yl)amino)pyrazin-2-yl)-7-methoxyimidazo[1,2-a]pyridin-6-yl)propan-2-ol]	109	193	< 0.5	3	0.8	–	–
CC(O)(c1cn2c(-c3cncc(N[C@H]4CNC[C@@H]4F)n3)cnc2cn1)C(F)(F)F (single isomer, unassigned) [Compound 75]	1090	1720	9	262	40	–	–
CC(C)Oc1ccn2c(-c3cncc(N[C@@H]4CCCNC4)n3)cnc2c1 [Compound 1, 6-(7-isopropoxyimidazo[1,2-a]pyridin-3-yl)-N-[(3R)-3-piperidyl]pyrazin-2-amine]	37	73	< 0.5	111	2	–	–
FC(F)Oc1ccn2c(-c3cncc(N[C@@H]4CCCNC4)n3)cnc2c1 [Compound 14, (R)-6-(7-(difluoromethoxy)imidazo [1,2-a]pyridin-3-yl)-N-(piperidin-3-yl)pyrazin-2-amine]	86	193	0.8	447	12	–	–
FC(F)COc1ccn2c(-c3ccnc(N[C@H]4CNC[C@@H]4F)n3)cnc2c1 [Compound 31, 4-(7-(2,2-difluoroethoxy)imidazo[1,2-a]pyridin-3-yl)-N-((3S,4S)-4-fluoropyrrolidin-3-yl)pyrimidin-2-amine]	15	344	< 0.5	9	0.7	–	–
COc1cc2ncc(-c3cncc(N[C@@H]4CCCNC4)n3)n2cc1C(C)(C)O [Compound 20, (R)-2-(7-methoxy-3-(6-(piperidin-3-ylamino)pyrazin-2-yl)imidazo[1,2-a]pyridin-6-yl)propan-2-ol]	43	61	< 0.5	5	1	–	–
CC(C)Oc1ccn2c(-c3nccc(N[C@@H]4CCCNC4)n3)cnc2c1 [Compound 53, (R)-2-(7-isopropoxyimidazo[1,2-a]pyridin-3-yl)-N-(piperidin-3-yl)pyrimidin-4-amine]	205	2170	2	1940	60	–	–
FC(F)COc1ccn2c(-c3cncc(N[C@@H]4CCCNC4)n3)cnc2c1 [Compound 8, (R)-6-(7-(2,2-difluoroethoxy)imidazo[1,2-a]pyridin-3-yl)-N-(piperidin-3-yl)pyrazin-2-amine]	14	39	< 0.5	42	< 0.5	–	–
FC(F)Oc1ccn2c(-c3ccnc(N[C@H]4CNC[C@@H]4F)n3)cnc2c1 [Compound 34, 4-(7-(difluoromethoxy)imidazo[1,2-a]pyridin-3-yl)-N-((3S,4S)-4-fluoropyrrolidin-3-yl)pyrimidin-2-amine]	86	1090	< 0.5	10	5	–	–
O=C1CCCN1c1cn2c(-c3ccnc(N[C@@H]4CCCNC4)n3)cnc2cn1 [Compound 47, (R)-1-(3-(2-(piperidin-3-ylamino)pyrimidin-4-yl)imidazo[1,2-a]pyrazin-6-yl)pyrrolidin-2-one]	39	344	< 0.5	68	12	–	–
O=C1CCCN1c1cn2c(-c3ccnc(N[C@H]4CNCC[C@@H]4F)n3)cnc2cn1 [Compound 48, 1-(3-(2-(((3S,4S)-4-fluoropiperidin-3-yl)amino)pyrimidin-4-yl)imidazo[1,2-a]pyrazin-6-yl)pyrrolidin-2-one]	43	273	< 0.5	97	18	–	–
CC(O)(c1cn2c(-c3cncc(N[C@H]4CNC[C@@H]4F)n3)cnc2cn1)C(F)(F)F (single isomer, unassigned) [Compound 77]	–	–	7	89	4	686	1930
CC(O)(c1cn2c(-c3cncc(N[C@@H]4CCCNC4)n3)cnc2cn1)C(F)(F)F (single isomer, unassigned) [Compound 74]	–	–	3	29	4	217	344
c1cn2c(-c3cncc(N[C@@H]4CCCNC4)n3)cnc2cc1OC1CC1 [Compound 11, (R)-6-(7-cyclopropoxyimidazo[1,2-a]pyridin-3-yl)-N-(piperidin-3-yl)pyrazin-2-amine]	43	109	< 0.5	85	5	–	–
FC(F)Oc1ccn2c(-c3cncc(N[C@H]4CNC[C@@H]4F)n3)cnc2c1 [Compound 13, 6-(7-(difluoromethoxy)imidazo [1,2-a]pyridin-3-yl)-N-((3S,4S)-4-fluoropyrrolidin-3-yl)pyrazin-2-amine]	307	864	1	86	21	–	–
FC(F)Oc1ccn2c(-c3ccnc(N[C@H]4CNCC[C@@H]4F)n3)cnc2c1 [Compound 36, 4-(7-(difluoromethoxy)imidazo[1,2-a]pyridin-3-yl)-N-((3S,4S)-4-fluoropiperidin-3-yl)pyrimidin-2-amine]	43	307	< 0.5	17	3	–	–
FC(F)COc1ccn2c(-c3ccnc(N[C@@H]4CCCNC4)n3)cnc2c1 [Compound 32, (R)-4-(7-(2,2-difluoroethoxy)imidazo[1,2-a]pyridin-3-yl)-N-(piperidin-3-yl)pyrimidin-2-amine]	7	77	< 0.5	45	2	–	–
F[C@H]1CNC[C@@H]1Nc1cncc(-c2cnc3cc(OC4CC4)ccn23)n1 [Compound 10, 6-(7-cyclopropoxyimidazo[1,2-a]pyridin-3-yl)-N-((3S,4S)-4-fluoropyrrolidin-3-yl)pyrazin-2-amine]	244	770	< 0.5	24	9	–	–
FC(F)Oc1ccn2c(-c3ccnc(N[C@@H]4CCCNC4)n3)cnc2c1 [Compound 35, (R)-4-(7-(difluoromethoxy)imidazo[1,2-a]pyridin-3-yl)-N-(piperidin-3-yl)pyrimidin-2-amine]	39	433	< 0.5	120	27	–	–
O=C1CCCN1c1cn2c(-c3ccnc(N[C@H]4CNC[C@@H]4F)n3)cnc2cn1 [Compound 46, 1-(3-(2-(((3S,4S)-4-fluoropyrrolidin-3-yl)amino)pyrimidin-4-yl)imidazo[1,2-a]pyrazin-6-yl)pyrrolidin-2-one]	77	1370	< 0.5	64	12	–	–
